Measured values published in patent publication US7691874B2, “Neuroprotective properties of dextrorotatory morphinans” (priority 2004, dated 2010).
Marks after values point to notes of the source that are not given here.

Columns and labels:
[1] = system: kainate or maximal electric shock; settings: kainate (24) or maximal electric shock (27); cited from earlier work
[2] = system: MA-treated mice; experiment: Nigral TH-IR in MA-treated mice; settings: 24 mg/kg i.p.
[3] = system: MPTP-treated mice; experiment: Hypokinesia (reduction in locomotor activity) induced by MPTP; assay type: in vivo; settings: 12 or 24 mg/kg i.p. 30 min before MPTP (20 mg/kg/day x 7), last three days
[4] = system: MA-treated mice; experiment: Hypokinesia induced by MA; assay type: in vivo; settings: 12 and 24 mg/kg; 3 days after final MA
[5] = system: cocaine-treated mice; experiment: Cocaine-induced hyperlocomotion; assay type: in vivo; settings: for effect on locomotor activity induced by low dose of cocaine: cocaine 5 mg/kg i.p. x 7 days, morphinan 15 or 30 mg/kg (DF 20 mg/kg) i.p.; for effect on hyperactivity induced by high dose of cocaine: cocaine 20 mg/kg i.p. x 7 days, morphinan 15 or 30 mg/kg i.p. 30 min before
Protocol: FIGS. 34A-34B show effect of morphinans on the cocaine-induced hyperactivity in the mice. Morphinans (15 and 30 mg/kg, i.p.) were administered 30 minutes prior to cocaine (5 and 20 mg/kg, i.p.). Central activity means relatively non-specific locomotor activity in the center of the box. Marginal activity means circling behaviors. All treatments were performed for 7 days.
FIGS. 35A-35D show effect of dimemorfan (DF) on cocaine-induced hyperactivity in the mice. DF (20 mg/kg, i.p.) was administered 30 minutes prior to cocaine (5 and 20 mg/kg, i.p.). All treatments were performed for 7 days.

[6] = system: cocaine-treated mice; experiment: Cocaine-induced Fos-related antigen-immunoreactivity (FRA-IR) in the striatum; settings: cocaine 5 mg/kg; morphinan 20 mg/kg i.p.
[7] = biological target: σ1 receptors (Homo sapiens, UniProt Q99720); settings: cited from earlier work
Sequence of σ1 receptors (Q99720 whole entry): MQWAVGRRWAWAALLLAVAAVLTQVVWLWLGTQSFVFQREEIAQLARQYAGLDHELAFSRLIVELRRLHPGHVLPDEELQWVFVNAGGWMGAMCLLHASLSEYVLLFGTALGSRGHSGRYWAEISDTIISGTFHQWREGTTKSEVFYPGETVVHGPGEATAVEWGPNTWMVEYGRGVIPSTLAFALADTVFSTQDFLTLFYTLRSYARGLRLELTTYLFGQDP

[8] = system: MA-treated mice; experiment: MA-induced FRA-IR in the striatum; settings: morphinan 20 mg/kg i.p.; MA 1 mg/kg i.p./day x 7
Protocol: Therefore, brains were removed and used for immunocytochemical analysis at 18 h after the final cocaine/MA treatment. The coronal sections containing striatum were processed for FRA immunocytochemistry. […] The FRA antibody was used at 1:2,000 as the optimal dilution. The FRA-IR in the striatum was calculated using image analysis systems with a polaroid digital microscopic camera (Optimas version 6.2).

[9] = system: C57 BL/6 mice; experiment: Conditioned place preference (psychological dependence) following repeated administration of morphinans or PCP; assay type: in vivo; settings: 20 or 40 mg/kg i.p. (PCP 2.5 or 5 mg/kg); vs saline
Protocol: On day 14, the guillotine doors were raised. […] Data were analyzed between 0900 and 1700 hr.

[10] = system: MA-treated mice; experiment: Methamphetamine (MA)-induced hyperthermia; assay type: in vivo; settings: 24 mg/kg; MA 7.5 mg/kg i.p. x 4 at 2-h intervals
Protocol: Rectal temperature was recorded at 40 min after each MA treatment. […] Mice were sacrificed at 3 days after final MA injection.
FIGS. 10A-10B show effect of morphinans on the methamphetamine (MA)-induced hyperthermia. Mice received i.p. injections of MA (four injections of 7.5 mg/kg each) at 2-h intervals under the ambient temperature of 22.0±0.5° C. Temperatures were recorded at 40 min after each MA treatment (Arrow=MA injection).

[11] = system: MA-treated mice; experiment: Striatal dopamine and metabolites in MA-treated mice; assay type: in vivo; settings: for Concentration DA in the striatum: 3 days after final MA
Excerpt: Mice were sacrificed at 3 days after final MA injection.

[12] = system: MA-treated mice; experiment: MA-induced behavioural sensitization; settings: morphinan 20 mg/kg i.p., last 3 days of wash-out (Ex. 3.12)
Protocol: Morphinans (20 mg/kg, i.p.) were administered last 3 days of wash-out period.

[13] = system: LPS-treated mice; experiment: Striatal dopamine and metabolites in LPS-treated mice; assay type: in vivo; settings: for Concentration DA in the striatum: 3 weeks after LPS
Excerpt: Control animals received striatal injection with PBS.
Mice were sacrificed at 3 weeks after LPS treatment.

[14] = system: LPS-treated mice; experiment: Hypokinesia induced by intrastriatal LPS; settings: 12 or 24 mg/kg, twice before bilateral intrastriatal LPS
[15] = system: MPTP-treated mice; experiment: Striatal dopamine and metabolites (HPLC-EC) in MPTP-treated mice; settings: for Concentration DA in the striatum: mean ± S.E.M., 8 animals
Protocol: Each morphinan was administered 30 min prior to every injection of MPTP for last three days (from day 4th to day 7th). Animals were sacrificed 24 h after the last MPTP treatment.
Brains were rapidly removed and cut into 1 mm coronal sections on ice. The striatum was punched using a fine pasteur pipette (3, 21, 22), and stored at −70° C. DA and its metabolites, 3,4-dihydroxyphenylacetic acid (DOPAC) and homovanilic acid (HVA) were measured by HPLC-eletrochemical detection (3, 21, 22). Briefly, the striatum was homogenized in 0.2 M perchloric acid containing 3,4-dihydroxybenzylamine as an internal standard (10 mg wet weight of tissue per ml). The homogenate was centrifuged and a 20-μl aliquot of the supernatant was injected into the HPLC equipped with an ODS-C18 column. The mobile phase was comprised of 26 ml of acetonitrile, 21 ml of tetrahydrofuran and 960 ml of 0.15 M monochloroacetic acid (pH 3.0) containing 50 mg/l of EDTA and 200 mg/l of sodium octyl sulfate. The amount of DA, DOPAC and HVA were determined by comparison of peak height ratio of tissue sample with standards, and were expressed in nanograms per 100 mg of wet weight of tissue.
Each morphinan was administered 30 min before every injection of MPTP for last three days. Animals were sacrificed at 24 h after the last MPTP injection.

[16] = system: NMDA receptor associated PCP sites; settings: cited from earlier work
[17] = system: MA-treated mice; experiment: MA-induced hyperlocomotion; assay type: in vivo; settings: morphinan 20 mg/kg i.p. 30 min before MA 1 mg/kg i.p./day x 7
Protocol: FIGS. 39A-39D show effect of morphinans on the MA-induced hyperactivity in the mice. Each morphinan (20 mg/kg, i.p.) was administered 30 minutes prior to MA (1 mg/kg, i.p.). All treatments were performed for 7 days.

[18] = system: C57 BL/6 mice; experiment: Locomotor activity and locomotor pattern following repeated administration of morphinans or PCP; assay type: in vivo; settings: for locomotor pattern (tracings): 40 mg/kg i.p. (PCP 5 mg/kg), FIG. 3; for marginal activity (circling behaviour; absolute turn angular): 20 or 40 mg/kg i.p./day x 7 (PCP 2.5 or 5 mg/kg), 3-min period; for marginal activity (circling behaviour; absolute turn angular) / locomotor activity (total distance moved): vs saline; for locomotor activity (total distance moved): 20 or 40 mg/kg i.p./day x 7 days, 30 min after final treatment
[19] = biological target: CB1 receptor (Rattus norvegicus, UniProt P20272); assay type: biochemical
Sequence of CB1 receptor (P20272 whole entry): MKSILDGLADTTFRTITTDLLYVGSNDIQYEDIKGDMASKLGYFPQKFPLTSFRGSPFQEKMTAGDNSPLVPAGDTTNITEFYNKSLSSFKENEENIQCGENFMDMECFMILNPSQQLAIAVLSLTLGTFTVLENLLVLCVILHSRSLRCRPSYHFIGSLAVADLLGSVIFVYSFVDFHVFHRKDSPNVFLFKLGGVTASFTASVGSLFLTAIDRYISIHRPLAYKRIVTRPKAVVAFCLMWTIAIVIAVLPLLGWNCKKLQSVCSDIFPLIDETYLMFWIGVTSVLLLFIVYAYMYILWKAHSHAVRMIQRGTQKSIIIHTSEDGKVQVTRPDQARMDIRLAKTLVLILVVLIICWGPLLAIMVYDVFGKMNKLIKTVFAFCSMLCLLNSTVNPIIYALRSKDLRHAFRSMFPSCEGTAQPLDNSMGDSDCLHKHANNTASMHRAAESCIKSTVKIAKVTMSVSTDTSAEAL

## C=CCOc1ccc2c(c1)[C@@]13CCCC[C@H]1[C@@H](C2)N(C)CC3 [AM, 3-allyloxy-17-methylmorphinan]
[1]
  anticonvulsant effect: exhibited anticonvulsant effects
[2]
  effect on MA-induced decrease in nigral TH-positive cells: significantly attenuated the decrease in TH-positive cells
[3]
  effect on MPTP-induced reduction in locomotor activity: neither AM nor DF affected significantly the locomotor hypoactivity
[4]
  effect on MA-induced reduction in locomotor activity: significantly prevented MA-induced reduction in locomotor activity
[5]
  effect on locomotor activity induced by low dose of cocaine: consistently attenuated locomotor activity induced by a low dose of cocaine
  effect on hyperactivity induced by high dose of cocaine: not uniform
[6]
  effect on cocaine-induced FRA-IR in the striatum: apparently attenuated
[7]
  affinity for σ1 receptors: high affinity ligands
[8]
  effect on MA-induced FRA-IR in the striatum: apparently attenuated
[9]
  conditioned place preference (CPP): almost no CPP effects
[10]
  effect on MA-induced hyperthermia (rectal temperature): attenuated by all morphinans used in this study
[11]; 24 mg/kg pretreatment
  effect on MA-induced reductions in striatal DA, DOPAC and HVA: significantly protected
[11]; morphinan 12 (mg/kg) + MA
  Concentration DOPAC in the striatum: 89 ± 9 ng/100 mg wet tissue
  Concentration HVA in the striatum: 79 ± 9 ng/100 mg wet tissue
[11]; morphinan 12 (mg/kg) + MA, mean ± S.E.M., 8 animals
  Concentration DA in the striatum: 601 ± 62 ng/100 mg wet tissue
[11]; morphinan 24 (mg/kg) + MA
  Concentration DOPAC in the striatum: 96 ± 10^b ng/100 mg wet tissue
  Concentration HVA in the striatum: 92 ± 10^b ng/100 mg wet tissue
  Concentration DA in the striatum: 749 ± 64^b ng/100 mg wet tissue
[12]
  effect on MA-induced behavioural sensitization: significantly reduced
[13]; 24 mg/kg pretreatment
  effect on LPS-induced reductions in striatal DA, DOPAC and HVA: did not alter LPS-induced reductions in DA, DOPAC and HVA levels
[13]; morphinan 12 (mg/kg) + LPS
  Concentration DOPAC in the striatum: 64 ± 8 ng/100 mg wet tissue
  Concentration HVA in the striatum: 75 ± 6 ng/100 mg wet tissue
[13]; morphinan 12 (mg/kg) + LPS, mean ± S.E.M., 8 animals
  Concentration DA in the striatum: 454 ± 55 ng/100 mg wet tissue
[13]; morphinan 24 (mg/kg) + LPS
  Concentration DOPAC in the striatum: 66 ± 7 ng/100 mg wet tissue
  Concentration HVA in the striatum: 70 ± 8 ng/100 mg wet tissue
  Concentration DA in the striatum: 452 ± 49 ng/100 mg wet tissue
[14]
  effect on LPS-induced decrease in locomotor activity: neither AM nor DF were effective in attenuating locomotor hypoactivity
[15]; 24 mg/kg pretreatment
  effect on MPTP-induced reductions in striatal DA, DOPAC and HVA: did not alter reductions in DA, DOPAC and HVA
[15]; morphinan 12 (mg/kg) + MPTP
  Concentration DOPAC in the striatum: 54 ± 6 ng/100 mg wet tissue
  Concentration HVA in the striatum: 69 ± 5 ng/100 mg wet tissue
  Concentration DA in the striatum: 468 ± 52 ng/100 mg wet tissue
[15]; morphinan 24 (mg/kg) + MPTP
  Concentration DOPAC in the striatum: 66 ± 8 ng/100 mg wet tissue
  Concentration HVA in the striatum: 78 ± 7 ng/100 mg wet tissue
  Concentration DA in the striatum: 539 ± 64 ng/100 mg wet tissue
[16]
  affinity for NMDA receptor associated PCP sites: very low affinities
[17]
  effect on MA-induced hyperlocomotion: consistently effective in attenuating hyperlocomotion induced by MA
[18]
  locomotor pattern (tracings): did not produce significant marginal activity
  marginal activity (circling behaviour; absolute turn angular): did not significantly affect marginal activity
  locomotor activity (total distance moved): appeared to increase locomotor activity slightly

## CCCCCCC(C)(C)c1ccc([C@@H]2C[C@H](O)CC[C@H]2CCCO)c(O)c1 [CP55,940, [1α, 2β-(R)-5α]-(−)-5-(1,1-dimethyl)-2-[5-hydroxy-2-(3-hydroxypropyl)cyclohexyl-phenol], reference compound]
[19]
  stimulation of GTP γS binding: about 120%

## CN1CC[C@]23CCCC[C@H]2[C@H]1Cc1ccc(O)cc13 [DX, 3-hydroxy-17-methylmorphinan, reference compound]
[7]
  affinity for σ1 receptors: high affinity ligands
[9]
  conditioned place preference (CPP): produced CPP in a dose-dependent manner
[18]
  locomotor pattern (tracings): produced marginal activity
  marginal activity (circling behaviour; absolute turn angular): significant increase in marginal activity
  locomotor activity (total distance moved): significantly increased locomotor activity

## COc1ccc2c(c1)[C@@]13CCCC[C@H]1[C@@H](C2)NCC3 [MM, 3-methoxymorphinan, reference compound]
[5]
  effect on locomotor activity induced by low dose of cocaine: did not influence locomotor activity mediated by a low dose of cocaine
  effect on hyperactivity induced by high dose of cocaine: attenuated
[6]
  effect on cocaine-induced FRA-IR in the striatum: Neither DM nor MM affects this induction of FRA-IR

## c1ccc(C2(N3CCCCC3)CCCCC2)cc1 [PCP, phencyclidine, reference compound]
[9]
  conditioned place preference (CPP): most significant CPP
[18]
  locomotor pattern (tracings): produced marginal activity
  marginal activity (circling behaviour; absolute turn angular): much stronger stereotypies
